Measured values published in patent US8653075B2, “Therapeutic methods employing substituted piperidines which are CCR3 antagonists” (Boehringer Ingelheim International GmbH, priority 2009, dated 2014).

Molecular target: T1, human chemokine receptor CCR3 (Homo sapiens, UniProt P51677)
T1 construct: expressed in transfected cells; host or cells: K562 cell line (hCCR3-C1 cells), membrane preparation
T1 sequence (P51677 1-355): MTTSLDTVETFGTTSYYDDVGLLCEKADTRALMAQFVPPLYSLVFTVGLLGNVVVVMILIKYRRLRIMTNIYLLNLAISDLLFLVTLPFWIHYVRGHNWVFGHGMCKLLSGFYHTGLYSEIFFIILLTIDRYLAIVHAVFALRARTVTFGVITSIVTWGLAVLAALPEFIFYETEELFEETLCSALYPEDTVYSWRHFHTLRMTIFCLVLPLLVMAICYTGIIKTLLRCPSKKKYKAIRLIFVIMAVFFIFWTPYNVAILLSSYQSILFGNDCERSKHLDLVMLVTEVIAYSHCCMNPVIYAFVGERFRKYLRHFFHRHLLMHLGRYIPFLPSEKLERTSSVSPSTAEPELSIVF
Assay: CCR3 receptor binding assay (SPA, 125I-eotaxin-1 displacement, hCCR3-C1 K562 cell membranes)
Details: human Eotaxin-1 at human CCR3-Rezeptor; for inhibition at 1 µM: 1 μM test compound, read-out: CCR3 % inh @ 1 μM; for Ki: dose range 0.1 to 10000 nM
Outline: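 SPA displacement of recombinant human 125I-eotaxin-1 (30.000 dpm per well) from membranes of CCR3-transfected K562 cells (0.5-10 μg protein/well) on WGA beads. Buffer was 25 mM HEPES, 25 mM MgCl2, 1 mM CaCl2, 0.1% BSA; incubation 2 h at room temperature. Specific binding was total minus NSB (unlabelled eotaxin-1), giving % inhibition and Ki.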

Row | inhibition at 1 µM | Ki | Structure (SMILES)
1 | 100% | 19 nM | Cc1cc(C)n(-c2ccnc(NC(=O)[C@H]3CCC(=O)N3C3CCN(Cc4ccc(Cl)c(C)c4)CC3)c2)n1 [Example 102]
2 | 80% | 299 nM | CNC(=O)c1cccc(NC(=O)[C@H]2CCC(=O)N2C2CCN(Cc3ccc(Cl)c(F)c3)CC2)c1 [Example 204]
3 | 75% | 442 nM | CNC(=O)c1cccc(NC(=O)[C@H]2CCC(=O)N2C2CCN(Cc3cc(Br)cs3)CC2)c1 [Example 207]
4 | 99% | 10 nM | Cc1cc(CN2CCC(N3C(=O)CC[C@@H]3C(=O)Nc3cccc(C(=O)N(C)Cc4ccco4)c3)CC2)ccc1Cl [Example 149]
5 | 63% | 482 nM | Cc1cc(CN2CCC(N3C(=O)CC[C@H]3C(=O)Nc3n[nH]c4ccccc34)CC2)ccc1Cl [Example 42]
6 | 65% | 430 nM | Cc1cc(CN2CCC(N3C(=O)CC[C@H]3C(=O)NC3CCN(c4ccccn4)CC3)CC2)ccc1Cl [Example 60]
7 | 100% | 8 nM | CCc1cc(C(=O)N(C)C)cc(NC(=O)[C@H]2CCC(=O)N2C2CCN(Cc3ccc(Cl)c(C)c3)CC2)n1 [Example 184]
8 | 100% | 7 nM | CCNS(=O)(=O)c1cccc(NC(=O)[C@H]2CCC(=O)N2C2CCN(Cc3ccc(Cl)c(Cl)c3)CC2)c1 [Example 6]
9 | 33% | 2010 nM | Cc1cc(CN2CCC(N3C(=O)CC[C@H]3C(=O)NC3CCN(S(C)(=O)=O)C3)CC2)ccc1Cl (stereo partly shown) [Example 53]
10 | 94% | 52 nM | COC(=O)c1cc(NC(=O)[C@H]2CCC(=O)N2C2CCN(Cc3ccc(Cl)c(C)c3)CC2)cn1C [Example 94]
11 | 76% | 254 nM | Cc1cc(CN2CCC(N3C(=O)CC[C@H]3C(=O)N3CCc4cccc(C(F)(F)F)c4C3)CC2)ccc1Cl [Example 56]
12 | 96% | 7 nM | Cc1cc(CN2CCC(N3C(=O)CC[C@@H]3C(=O)Nc3cccc(N4CCN(C)C4=O)c3)CC2)ccc1Cl [Example 18]
13 | 101% | 3 nM | Cc1cc(C(=O)N(C)C)cc(NC(=O)[C@H]2CCC(=O)N2C2CCN(Cc3ccc(Cl)c(C)c3)CC2)n1 [Example 135]
14 | 100% | 12 nM | Cc1cc(CN2CCC(N3C(=O)CC[C@@H]3C(=O)Nc3cccc(C(=O)N4CCC4)c3)CC2)ccc1Cl [Example 152]
15 | 57% | 492 nM | Cc1cc(CN2CCC(N3C(=O)CC[C@H]3C(=O)N3Cc4ccccc4C(C)(C)C3)CC2)ccc1Cl [Example 61]
16 | 90% | 81 nM | CNC(=O)c1cccc(NC(=O)[C@@H]2CN(C)C(=O)N2C2CCN(Cc3ccc(Cl)c(C)c3)CC2)c1 [Example 127]
17 | 82% | 145 nM | Cc1cc(CN2CCC(N3C(=O)CC[C@@H]3C(=O)Nc3cc(C(N)=O)cc(C(N)=O)c3)CC2)ccc1Cl [Example 32]
18 | 89% | 85 nM | CNC(=O)c1cccc(NC(=O)[C@H]2CN(C)C(=O)N2C2CCN(Cc3ccc(Cl)c(C)c3)CC2)c1 [Example 131]
19 | 99% | 15 nM | CCN(CC)C(=O)c1cccc(NC(=O)[C@H]2CCC(=O)N2C2CCN(Cc3ccc(Cl)c(C)c3)CC2)c1 [Example 157]
20 | 95% | 18 nM | Cc1cc(CN2CCC(N3C(=O)CC[C@H]3C(=O)Nc3ccc4c(c3)CCC(=O)N4)CC2)ccc1Cl [Example 23]
21 | 99% | 12 nM | Cc1cc(CN2CCC(N3C(=O)CC[C@@H]3C(=O)Nc3cccc(C(=O)N4CCCCC4CO)c3)CC2)ccc1Cl (stereo partly shown) [Example 153]
22 | 38% | 1110 nM | Cc1cc(CN2CCC(N3C(=O)CC[C@@H]3C(=O)N3CCCc4ccccc43)CC2)ccc1Cl [Example 15]
23 | 100% | 5 nM | Cc1cc(CN2CCC(N3C(=O)CC[C@@H]3C(=O)Nc3cccc(N4CCNC4=O)c3)CC2)ccc1Cl [Example 17]
24 | 97% | 27 nM | Cc1cc(CN2CCC(N3C(=O)CC[C@@H]3C(=O)Nc3cccc(S(=O)(=O)CCO)c3)CC2)ccc1Cl [Example 26]
25 | 97% | 10 nM | CNC(=O)c1cc(C)nc(NC(=O)[C@H]2CCC(=O)N2C2CCN(Cc3ccc(Cl)c(C)c3)CC2)c1 [Example 150]
26 | 69% | 390 nM | CNC(=O)c1cccc(NC(=O)[C@H]2CCC(=O)N2C2CCN(Cc3ccc(F)cc3)CC2)c1 [Example 202]
27 | 63% | 507 nM | Cc1cc(CN2CCC(N3C(=O)CC[C@H]3C(=O)N3CCc4cc(F)ccc4C3)CC2)ccc1Cl [Example 62]
28 | 54% | 1400 nM | Cc1cc(CN2CCC(N3C(=O)CC[C@@H]3C(=O)N(C)c3ccccn3)CC2)ccc1Cl [Example 103]

Row | Structure (SMILES) | inhibition at 1 µM | Ki
29 | Cc1cc(CN2C3CCC2CC(N2C(=O)CC[C@@H]2C(=O)Nc2cccc(N(CC(=O)N(C)C)S(=O)(=O)C4CC4)c2)C3)ccc1Cl (stereo partly shown) [Example 78] | 94% | 50 nM
